Experimental data: patent publication US9725695B2, “Stem cell defined media for xeno-free and feeder free conditions and uses thereof” (The Regents of the University of California, priority 2010, dated 2017)

How the values were obtained:
H-9 cells [1] = assay: Kinetic growth of H-9 cells on feeders in PB12/RCCD media formulations (Integral, Px,max, μ) with Statistica effect/regression models; type: cell-based, human; set-up: Effect on Integral / Effect on μ: unit not given here; conditions: for Regression coefficient (Linear), Px, max / Regression coefficient (Quadratic), Px, max / Regression coefficient (Linear), Integral: 1st RCCD, codified values; for Regression coefficient (Linear), Px, max / Regression coefficient (Quadratic), Px, max: R^2 = 80.0%; for Regression coefficient (Linear), Integral: R^2 = 86.4%; for Effect on Integral / Effect on Px, max / Effect on μ: PB12, level −1 to +1 (ranges Table 2), least square method
From the text: A Placket-Burman matrix of 12 independent conditions (PB12) was used (Table 1), according to the Design of Experiments (DOE) methodology for the screening of 8 factors (RODRIGUES & IEMMA, 2005). […] Since this first step, the PB12, is a screening step, whenever it was possible the concentration of the factor was set as zero. • Condition 0: represents the central condition of the DOE, being the mean value obtained from averaging the values for levels −1 and +1. In addition to the central condition, the “main” central condition is defined as a state when all factors are set to condition 0.
In total, 14 different conditions were examined: 12 related to the PB12 matrix, 1 related to the “main” central condition that was performed in quadruplicates for the error estimation and a control condition with KSR. The basal media was: a 1:1 mixture 1:1 of DMEM and Ham's F12 (DMEM/F12; Mediatech, Manassas, Va.; catalog number 10-092), 1% NEAA, 110 μM β-mercaptoethanol (BME; Sigma-Aldrich, St. Louis, Mo.; catalog number M7522), 50 μg/mL gentamicin sulfate (Mediatech, Manassas, Va.; catalog number 30-005-CR) and 8 ng/mL of FGF-2 (Peprotech, Rocky Hill, N.J.; catalog number 100-18B). FGF-2 was reconstituted in PBS at 100 ug/mL and was added to the media for a final concentration of 8 ng/mL at the start of the culture. During the culture period, additional FGF-2 (8 ng/mL) was added directly to the media on a daily basis.
Every 24 hours one well from each condition and 4 wells from the main central condition were enzymatic dissociated and counted with the help of an automatic counter (NucleoCounter NC-100), for an unbiased measure of cell growth. In that way, by the end of the 5 days, a kinetic curve was obtained for every single condition (FIG. 1). Readouts like integral of cells (integral; defined as area below the curve), maximum productivity (Px,max; defined as the highest value obtained from dividing cell number by time) or and specific global ( ) growth rate (or speed of cell growth obtained from the formula dX/dt=pX) were calculated in order to perform the statistics comparing all different curves (Table 3).
Through the estimation of the effects from the least square method and the calculation of the errors obtained by the replicates performed on the main central condition (formulation 13), “t” was calculated as the ratio of effect and error.
By comparing the calculated “t” value with “t” values from a Student's “t” distribution table for a bilateral distribution, the p-value was obtained for each parameter in every readout.
Aiming to understand better the contribution of each protein in the formulation of the media, an optimization step was performed using the Three-Variable Rotatable Central Composite Design (RCCD; Rodrigues and lemma, 2005). The concentration range of each supplement was the same as given in Table 2 for the PB12 design, with the same concentration for the level 0, −1, and +1 condition.
The basal media was: a 1:1 mixture 1:1 of DMEM and Ham's F12 (DMEM/F12; Mediatech, Manassas, Va.; catalog number 10-092), 1.5% NEAA, 8.46 mg/L citric acid, 0.89×10^−4 mM sodium selenite, 2 mM glutamine (total of 4.5 mM), BME 110 μM, gentamicin sulfate 50 μg/mL and 8 ng/mL of FGF-2.
As before, kinetics growth of H-9 cells were obtained and readouts like Integral and Px, max were calculated (Table 6).
Through the use of Statistica software (StatSoft, Tulsa, Okla.), a second order mathematical model was generated in order to evaluate the real contribution of each supplement (Table 7).

H-9 cells [2] = assay: as above; type: cell-based, human; conditions: codified values
wild-type iPS line [3] = assay: Feeder free 2-variable RCCD (Activin A, TGF-beta-1): self-renew (final cell growth achieved); type: cell-based; conditions: first feeder-free 2-variable RCCD, R^2 = 90.3%, p < 0.1; for Self-renew regression Coefficient (Linear): linear term of coded variable; for Self-renew regression Coefficient (Quadratic): quadratic term of coded variable
From the text: (§1) Aiming to improve the efficacy of the media, stimulating other pathways, besides the FGF-path, were explored. The Nodal/Activin pathway is related to pluripotency/self-renew (XIAO, 2006), than the factors from TGF superfamily. Activin A (Peprotech, Rocky Hill, N.J.; catalog number 120-14E) and TGF-beta-1 (Peprotech, Rocky Hill, N.J.; catalog number 100-21C), were investigated in a 2-variable RCCD (Table 20).
(§2) In these experiments, a wild-type iPS line was used. In the same fashion as the feeder conditions, cells were homogenously inoculated in several plates in each different formulation. The main difference in this step was the readout analyzed. Kinetic growth were not obtained due to the problems related to managing several feeder-free plates. Thus, instead of calculating integral and Px,max, two other readouts were used. The first one was the final cell growth achieved, called here as self-renew and the other one was percent of pluripotency, obtained from FACs analyzes by the dual staining with SSEA-4 and Nanog.
Analyzing the model, it is clear that TGF-beta-1 and Activin A have similar parameters. Additionally, they got a negative interaction with each other; meaning that, from an optimization point of view, if one is raised the other should be diminished. Taking a look into the surface gives a better clue of the best regions.

wild-type iPS line [4] = assay: Feeder free 2-variable RCCD (Activin A, TGF-beta-1): percent of pluripotency, FACs dual staining SSEA-4 and Nanog; type: cell-based; conditions: p>0.1
From the text: as §1, §2

H-9s [5] = assay: H-9s concentration after 3 days in low protein formulation with different BME concentrations; type: cell-based, human; conditions: 20 μM, low protein amount formulation, p<0.01, t-test
From the text: FIG. 7: H-9s concentration after 3 days of culture in low protein based formulation with different BME concentrations. Error bars were generated through independent quadruplicates.
Having a meticulous comparison between all RCCDs performed, it was noticed that BME concentration was different due to supplier differences. […] Still, considering that BME is not just an antioxidant but a denaturizing chemical as well, it is expected that this compound would have a greater effect on media formulated with low amount of proteins.
Astonishingly, BME is normally added and recommended in KSR based media and feeder free media like mTeSR1 and StemPro. However, the negative effect of this compound is probably buffered by the huge amount of proteins that these media got, around 10 grams per liter, while the invention provides at least 20 times less. This discovery represents a breakthrough in terms of what are the real needs of an ES cell, drastically changing the media and cell's environment.

H-9s [6] = conditions: extra amount of bicarbonate (2.4 g/L vs 1.2 g/L)
Description: A simple test was performed with KSR formulation, just changing basal media supplier and consequently just changing the amount of buffer.

[7] = RCCD for NEAA, citric acid and glutamine, R^2 = 89.5%
[8] = RCCD for NEAA, citric acid and glutamine, R^2 = 90.7%

IGF-1 was tested, and the “Regression coefficient (Linear), Px, max” value (H-9 cells [1]) was 0.0121, the “Regression coefficient (Quadratic), Px, max” value (H-9 cells [1]) was −0.0036 and the “Regression coefficient (Linear), Integral” value (H-9 cells [1]) was 42.99. For the same molecule, the “Effect on Integral” value (H-9 cells [1]) was 97.69, the “Effect on Px, max” value (H-9 cells [1]) was 0.0292 and the “Effect on μ” value (H-9 cells [1]) was 0.0027. For the same molecule, the “Regression coefficient (Quadratic), Integral” value (H-9 cells [2]; 1st RCCD, R^2 = 86.4%) was −1.19, the “Regression coefficient (Linear), Px, max” value (H-9 cells [2]; 2nd RCCD, R^2 = 37.9%) was 0.0021 and the “Regression coefficient (Quadratic), Px, max” value (H-9 cells [2]; 2nd RCCD, R^2 = 37.9%) was −0.0011. For the same molecule, the “Regression coefficient (Linear), Integral” value (H-9 cells [2]; 2nd RCCD, R^2 = 62.7%) was 17.03, the “Regression coefficient (Quadratic), Integral” value (H-9 cells [2]; 2nd RCCD, R^2 = 62.7%) was −4.60 and the “Regression coefficient (Linear), Integral” value (H-9 cells [2]; 3rd RCCD, R^2 = 65.8%) was 0.24. The “Regression coefficient (Quadratic), Integral” value (H-9 cells [2]; 3rd RCCD, R^2 = 65.8%) was 7.12, the “Regression coefficient (Linear), Px, max” value (H-9 cells [2]; 3rd RCCD, R^2 = 86.4%) was 0.0003 and the “Regression coefficient (Quadratic), Px, max” value (H-9 cells [2]; 3rd RCCD, R^2 = 86.4%) was 0.0041. The “Regression coefficient (Linear), Px, max” value (H-9 cells [2]; 4th RCCD, R^2 = 69.0%) was 0.0028, the “Regression coefficient (Quadratic), Px, max” value (H-9 cells [2]; 4th RCCD, R^2 = 69.0%) was 0.0046 and the “Regression coefficient (Linear), Integral” value (H-9 cells [2]; 4th RCCD, R^2 = […]) was 3.10. The “Regression coefficient (Quadratic), Integral” value (H-9 cells [2]; 4th RCCD, R^2 = […]) was 10.30.
For TGF-β-1, the “Self-renew regression Coefficient (Linear)” value (wild-type iPS line [3]) was −0.508 and the “Self-renew regression Coefficient (Quadratic)” value (wild-type iPS line [3]) was 0.936.
In the case of “Activin A: Activin A (Peprotech), factor from TGF superfamily”, the “Self-renew regression Coefficient (Linear)” value (wild-type iPS line [3]) is reported as −0.430, the “Self-renew regression Coefficient (Quadratic)” value (wild-type iPS line [3]) is reported as 0.798 and the “statistical relevance of model parameters for pluripotency” value (wild-type iPS line [4]) is reported as “no parameters either related to Activin A or TGF-beta-1 that were statistically relevant”.
With `O=[Se]([O-])[O-].[Na+].[Na+]` [Selenite, sodium selenite] the “Effect on Integral” value (H-9 cells [1]) was 7.46, the “Effect on Px, max” value (H-9 cells [1]) was 0.0029 and the “Effect on μ” value (H-9 cells [1]) was 0.0098.
For `NCCO` [Etan., ethanolamine], the “Effect on Integral” value (H-9 cells [1]) was −0.56, the “Effect on Px, max” value (H-9 cells [1]) was −0.0055 and the “Effect on μ” value (H-9 cells [1]) was 0.0006.
“TGF-beta-1: TGF-beta-1 (Peprotech), factor from TGF superfamily” was tested, and the “statistical relevance of model parameters for pluripotency” value (wild-type iPS line [4]) was “no parameters either related to Activin A or TGF-beta-1 that were statistically relevant”.
`OCCS` [BME, β-mercaptoethanol] was tested, and the “effect on ES cell growth” value (H-9s [5]) was “statistically negative effect”.
`NC(=O)CC[C@H](N)C(=O)O` [Glut, glutamine] was tested, and the “Effect on Integral” value (H-9 cells [1]) was −39.15, the “Effect on Px, max” value (H-9 cells [1]) was −0.0088 and the “Effect on μ” value (H-9 cells [1]) was 0.0023. The “Regression coefficient (Linear), Px, max” value (H-9 cells [2]; [7]) was −0.0010, the “Regression coefficient (Quadratic), Px, max” value (H-9 cells [2]; [7]) was −0.0050 and the “Regression coefficient (Linear), Integral” value (H-9 cells [2]; [8]) was 2.10. For the same molecule, the “Regression coefficient (Quadratic), Integral” value (H-9 cells [2]; [8]) was −10.20.
In the case of “Transf.: CellPrime rTransferrin AF recombinant human transferrin (Millipore)”, the “Regression coefficient (Linear), Px, max” value (H-9 cells [1]) is reported as 0.0107, the “Regression coefficient (Quadratic), Px, max” value (H-9 cells [1]) is reported as 0.0028 and the “Regression coefficient (Linear), Integral” value (H-9 cells [1]) is reported as 43.29. The “Effect on Integral” value (H-9 cells [1]) was 65.44, the “Effect on Px, max” value (H-9 cells [1]) was 0.0189 and the “Effect on μ” value (H-9 cells [1]) was 0.0169. The “Regression coefficient (Quadratic), Integral” value (H-9 cells [2]; 1st RCCD, R^2 = 86.4%) was 4.06, the “Regression coefficient (Linear), Px, max” value (H-9 cells [2]; 2nd RCCD, R^2 = 37.9%) was 0.0027 and the “Regression coefficient (Quadratic), Px, max” value (H-9 cells [2]; 2nd RCCD, R^2 = 37.9%) was −0.0014. The “Regression coefficient (Linear), Integral” value (H-9 cells [2]; 2nd RCCD, R^2 = 62.7%) was 18.70, the “Regression coefficient (Quadratic), Integral” value (H-9 cells [2]; 2nd RCCD, R^2 = 62.7%) was 5.70 and the “Regression coefficient (Linear), Integral” value (H-9 cells [2]; 3rd RCCD, R^2 = 65.8%) was 4.61. The “Regression coefficient (Quadratic), Integral” value (H-9 cells [2]; 3rd RCCD, R^2 = 65.8%) was 3.59, the “Regression coefficient (Linear), Px, max” value (H-9 cells [2]; 3rd RCCD, R^2 = 86.4%) was 0.0013 and the “Regression coefficient (Quadratic), Px, max” value (H-9 cells [2]; 3rd RCCD, R^2 = 86.4%) was 0.0018. For the same molecule, the “Regression coefficient (Linear), Px, max” value (H-9 cells [2]; 4th RCCD, R^2 = 69.0%) was 0.0021, the “Regression coefficient (Quadratic), Px, max” value (H-9 cells [2]; 4th RCCD, R^2 = 69.0%) was −0.0034 and the “Regression coefficient (Linear), Integral” value (H-9 cells [2]; 4th RCCD, R^2 = […]) was 1.17. The “Regression coefficient (Quadratic), Integral” value (H-9 cells [2]; 4th RCCD, R^2 = […]) was −14.34.
`O=C(O)CC(O)(CC(=O)O)C(=O)O` [Citric Acid, citric acid] was tested, and the “Effect on Integral” value (H-9 cells [1]) was 17.09, the “Effect on Px, max” value (H-9 cells [1]) was 0.0060 and the “Effect on μ” value (H-9 cells [1]) was 0.0065. The “Regression coefficient (Linear), Px, max” value (H-9 cells [2]; [7]) was −0.0020, the “Regression coefficient (Quadratic), Px, max” value (H-9 cells [2]; [7]) was −0.0104 and the “Regression coefficient (Linear), Integral” value (H-9 cells [2]; [8]) was 1.63. The “Regression coefficient (Quadratic), Integral” value (H-9 cells [2]; [8]) was −33.83.
For `O=C([O-])O.[Na+]` [bicarbonate, sodium bicarbonate], the “cell growth with KSR formulation” value (H-9s [6]) was “perform better”.
